Consider three compounds from patent publication US20260209152A1, “Substituted Hydroxystilbene Compounds and Derivatives, Synthesis and Uses Thereof” (Kynan Duke IP, LLC, priority 2019, published 2026).

Structures are written as SMILES. “Also recorded” adds a separate entry of the source. Read-outs that look alike come from different tables or passages of the source.

One data set concerns Pancreatic CAPAN-1. The data set can be described thus: CellTiter Glo cell viability assay. The conditions noted are these: for IC50: Homo sapiens, CAPAN-1, 72 h, 18 2-fold dilutions 5-0.00003 μM. In kind it is cell-based, human. The essentials: (§1)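 Cells were seeded at 1.7*10^3 cells/well in quadruplicate and treated with 18 two-fold dilutions from 5 μM (0.000038146–5 μM), or with 1, 2, 5, 10 and 20 μM. Viability was read by CellTiter Glo luminescence on days 1, 3 and 5, and IC50 came from nonlinear regression of RLU against log dose.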

A further data set deals with Lung NCI-H661. Description: CellTiter Glo cell viability assay. In kind it is cell-based, human. Particulars: for IC50: Homo sapiens, NCI-H661, 72 h, 3 Days of treatment, 18 2-fold dilutions 5-0.00003 μM. The essentials:
as §1

The subject of another data set is Fibrosarcomas SW 684. Description: CellTiter Glo cell viability assay. It counts as cell-based, human. Particulars: for IC50: Homo sapiens, SW684, 72 h, 3 Days of treatment, 18 2-fold dilutions 5-0.00003 μM. The essentials: as §1
The test system of the next data set is Bladder SW780. The data set can be described thus: CellTiter Glo cell viability assay. In kind it is cell-based, human. Particulars: for IC50: Homo sapiens, SW780, 72 h, 3 Days of treatment, 18 2-fold dilutions 5-0.00003 μM. The essentials:
as §1

The test system of a further data set is Rhabomyosarcoma Hs 729. The data set can be described thus: CellTiter Glo cell viability assay. In kind it is cell-based, human. Particulars: for IC50: Homo sapiens, 72 h, 3 Days of treatment, 18 2-fold dilutions 5-0.00003 μM. The essentials: as §1
The next data set relates to Bladder UMUC-14. The data set can be described thus: CellTiter Glo cell viability assay. The conditions noted are these: for IC50: Homo sapiens, UMUC14, 72 h, 3 Days of treatment, 18 2-fold dilutions 5-0.00003 μM. In kind it is cell-based, human. The essentials:
as §1

The test system of data set [1] is Connective Tissue Sarcoma TE 381.T. Description: CellTiter Glo cell viability assay. It counts as cell-based, human. The conditions noted are these: for IC50: Homo sapiens, TE 381.T, 72 h, 3 Days of treatment, 18 2-fold dilutions 5-0.00003 μM. The essentials: as §1
The test system of another data set is Bladder J82. The data set can be described thus: CellTiter Glo cell viability assay. It counts as cell-based, human. The conditions noted are these: for IC50: Homo sapiens, 72 h, 3 Days of treatment, 18 2-fold dilutions 5-0.00003 μM. The essentials:
as §1

The subject of a further data set is Kidney ACHN. Description: CellTiter Glo cell viability assay. It counts as cell-based, human. The conditions noted are these: for IC50: Homo sapiens, ACHN. The essentials:
as §1

Another data set relates to Pancreatic CFPAC. Description: CellTiter Glo cell viability assay. It counts as cell-based, human. Particulars: for IC50: Homo sapiens, 72 h, 3 Days of treatment, 18 2-fold dilutions 5-0.00003 μM. The essentials: as §1
The test system of a further data set is Tongue SCC-25. The data set can be described thus: CellTiter Glo cell viability assay. It counts as cell-based, human. Particulars: for IC50: Homo sapiens, SCC-25, 72 h, 3 Days of treatment, 18 2-fold dilutions 5-0.00003 μM. A digest of the protocol:
as §1

The subject of the next data set is Liposarcoma 94T778. Description: CellTiter Glo cell viability assay. In kind it is cell-based, human. Particulars: for IC50: Homo sapiens, 72 h, 3 Days of treatment, 18 2-fold dilutions 5-0.00003 μM. The essentials:
as §1

A further data set deals with Liver SNU-475. The data set can be described thus: CellTiter Glo cell viability assay. In kind it is cell-based, human. The conditions noted are these: for IC50: Homo sapiens, SNU-475, 72 h, 3 Days of treatment, 18 2-fold dilutions 5-0.00003 μM. The essentials: as §1
The subject of a further data set is Lung NCI-H596. Description: CellTiter Glo cell viability assay. In kind it is cell-based, human. The conditions noted are these: for IC50: Homo sapiens, NCI-H596, 72 h, 3 Days of treatment, 18 2-fold dilutions 5-0.00003 μM. The essentials:
as §1

Another data set relates to Osteosarcomas SJSA_1. The data set can be described thus: CellTiter Glo cell viability assay. Particulars: for IC50: Homo sapiens, SJSA-1, 72 h, 3 Days of treatment, 18 2-fold dilutions 5-0.00003 μM. It counts as cell-based, human. A digest of the protocol: as §1
The subject of a further data set is Leiomyosarcoma SK-UT-1B. The data set can be described thus: CellTiter Glo cell viability assay. In kind it is cell-based, human. The conditions noted are these: for IC50: Homo sapiens, Skut1B, 72 h, 3 Days of treatment, 18 2-fold dilutions 5-0.00003 μM. A digest of the protocol: as §1
The next data set deals with Osteosarcomas Hs888.T. Description: CellTiter Glo cell viability assay. In kind it is cell-based, human. Particulars: for IC50: Homo sapiens, 72 h, 3 Days of treatment, 18 2-fold dilutions 5-0.00003 μM. The essentials:
as §1

Another data set relates to BALB/c mice. Description: Effect of oral administration on animal wellbeing in B16F10 xenografted mice. It counts as in vivo. Particulars: 900 mg/kg oral daily for 15 days. As to the method: • Observe and assess the effect of oral administration of 27 on animal wellbeing. • Quantify levels of 27 in tissues (plasma, tumor, liver, spleen and brain) to assess the compound bioaccumulation and distribution.
B16F10 cells (25×10^5 cells/mouse) were injected subcutaneously into the right flank of female BALB/c mice aged 7-8 weeks. Mice (n=10) were divided into 2 groups and given daily oral suspension of 27 (treated group), or vehicle (control group) for 15 days. The treated group was orally given a suspension of 27 at 900 mg/kg. The control group was given the vehicle suspension (SEDDS). Measurements performed on days 0, 9 and 15 only. Tissues (plasma, tumor, liver, spleen and brain) were harvested within 3 hours of final treatment. Biopsies of tumor tissues for histopathology were obtained subsequently.

Setting [2] is: 3 Days of treatment, read-out: Average IC50.
[3] abbreviates: Table 4: 3 Days of treatment, Average (1, 8) or single Exp A-D, read-out: IC50.
The mark [4] stands for this setting: 72 h, 3 Days of treatment, 18 2-fold dilutions 5-0.00003 μM, read-out: Average IC50.
Setting [5] is: 72 h, Table 4: 3 Days of treatment, 18 2-fold dilutions 5-0.00003 μM, Average (1, 8) or single Exp A-D, read-out: IC50.
[6] abbreviates: 120 h, Day 5 upon drug treatment, 10 dosages 0.0001-20 μM (Compound 8: 18 dosages 0.000038146 to 5 μM), read-out: IC50.
Where [7] appears, read: IC50 of 1 [KYN-001] vs 8 [KYN-119], 3 Days.

For `COc1cc(/C=C/c2cc(O)cc(OC)c2CC=C(C)C)ccc1O` [Compound 1, (E)-3-(4-hydroxy-3-methoxystyryl)-5-methoxy-4-(3-methylbut-2-en-1-yl)phenol], the half-inhibitory concentration (IC50) came out at 6220 nM in the data set on Pancreatic CAPAN-1 (setting [2]); 1460 nM in the data set on Pancreatic CAPAN-1 (setting [3]); 36.6 nM in the data set on Lung NCI-H661; 55.2 nM with Fibrosarcomas SW 684; 712 nM with Bladder SW780; 383 nM in the data set with Rhabomyosarcoma Hs 729. Also, the IC50 with Bladder UMUC-14 stood at 1160 nM; in data set [1], 35.7 nM; in the data set with Bladder J82, 184 nM; in the data set on Kidney ACHN (setting [4]), 494 nM; in the data set with Kidney ACHN (setting [5]) it was 496 nM; in the data set with Kidney ACHN (setting [6]), 89.7 nM. The IC50 in the data set on Pancreatic CFPAC amounted to 492 nM; in the data set on Tongue SCC-25 it was 744 nM; in the data set with Liposarcoma 94T778 it was 84.5 nM; with Liver SNU-475 it was 239 nM; in the data set with Lung NCI-H596, 303 nM; with Osteosarcomas SJSA_1, 2300 nM. For the same compound, the values for the IC50 in the data set with Leiomyosarcoma SK-UT-1B and with Osteosarcomas Hs888.T were 22.6 nM and 210 nM, respectively.
Take `CCOc1cc(O)cc(/C=C/c2ccc(O)c(OC)c2)c1CC=C(C)C` [Compound 8, (E)-3-Ethoxy-5-(4-hydroxy-3-methoxystyryl)-4-(3-methylbut-2-en-1-yl)phenol]: the half-inhibitory concentration (IC50) stood at 4690 nM with Pancreatic CAPAN-1 (setting [2]); 2450 nM in the data set with Pancreatic CAPAN-1 (setting [3]); 11.5 nM with Lung NCI-H661; 4.63 nM in the data set on Fibrosarcomas SW 684; 217 nM with Bladder SW780; 64.9 nM in the data set on Rhabomyosarcoma Hs 729. Besides, the concentration for half-maximal inhibition (IC50) was 563 nM in the data set on Bladder UMUC-14; 7.5 nM in data set [1]; 46.5 nM in the data set with Bladder J82; 10.4 nM in the data set on Kidney ACHN (setting [4]); 9.8 nM in the data set on Kidney ACHN (setting [5]); approximately 0.0135 nM in the data set with Kidney ACHN (setting [6]). Besides, the IC50 was determined as 82.4 nM in the data set with Pancreatic CFPAC; 276 nM in the data set on Tongue SCC-25; 25.7 nM with Liposarcoma 94T778; 32.4 nM in the data set with Liver SNU-475; 115 nM with Lung NCI-H596; 9580 nM with Osteosarcomas SJSA_1. The IC50 in the data set with Leiomyosarcoma SK-UT-1B was determined as 6.39 nM; in the data set with Osteosarcomas Hs888.T it was 26.1 nM. For the same compound, the “Fold IC50” value with Pancreatic CAPAN-1 (setting [7]) is listed as 1.3; in the data set on Lung NCI-H661 (setting [7]), 3.2; with Fibrosarcomas SW 684 (setting [7]), “.12”; with Bladder SW780 (setting [7]) it was 3.3; in the data set on Rhabomyosarcoma Hs 729 (setting [7]), 5.9; in the data set on Bladder UMUC-14 (setting [7]), 2.1. Moreover, the “Fold IC50” value amounted to 4.8 in data set [1] (setting [7]); 4.0 in the data set with Bladder J82 (setting [7]); 48 with Kidney ACHN (setting [7]); 6.0 in the data set with Pancreatic CFPAC (setting [7]); 2.7 in the data set on Tongue SCC-25 (setting [7]); 3.3 in the data set on Liposarcoma 94T778 (setting [7]). Besides, the “Fold IC50” value with Liver SNU-475 (setting [7]) is recorded as 7.4; in the data set with Lung NCI-H596 (setting [7]) it was 2.6; in the data set on Osteosarcomas SJSA_1 (setting [7]) it was 0.2; in the data set on Leiomyosarcoma SK-UT-1B (setting [7]), 3.5; in the data set on Osteosarcomas Hs888.T (setting [7]), 8.1.
Take `COc1cc(/C=C/c2cc(O)cc(OC)c2CC=C(C)C)ccc1NC=O` [Compound 27, (E)-N-(4-(5-hydroxy-3-methoxy-2-(3-methylbut-2-en-1-yl)styryl)-2-methoxyphenyl)formamide]: the “Signs of toxic effect” value in the data set with BALB/c mice was “no signs of toxic effect; also recorded: low toxicity when given orally”.
